Test: Stability tests at 5° C. and 25° C. under sealed conditions after 3 months (impurity content)
Format: physicochemical
Conditions: sealed packaging, % of the total weight of the composition
Protocol: The composition in the forms of capsule A and B were packaged in sealed packers. They were stored for 3 months at 5° C. at an external humidity level of 20%, or at 25° C. at an external humidity level of 60%.
The weight content in impurities (in % of the total weight of the composition) was assayed immediately […], then after 3 months of storage. The difference between these two percentages gives the change in impurity content.
It is compared to that obtained for freeze-dried vinflunine ditartrate stored under the same conditions.

vinflunine ditartrate
Changes in impurity levels at 5° C. (3 months at 5° C., external humidity 20%): +0.8% | Changes in impurity levels at 25° C. (3 months at 25° C., external humidity 60%): +1.9%

Reference: US9173842B2, “Stable pharmaceutical composition comprising a hydrosoluble vinflunine salt” (PIERRE FABRE MEDICAMENT, priority 2007, dated 2015)
